Source: ChEMBL document CHEMBL1201862, “PubChem BioAssay data set” (2004)
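Step 1: Grow cells in 96-well plates. Step 2: Expose to compound for 48 hours at 5 concentrations. Step 3: Interpolate endpoints linearly; if unreached, use highest concentration. Here, GI50 denotes the concentration required for 50% inhibition of growth.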 The source made the active and inactive calls. Cut-off read from the data, not from the text of the source: active = GI50 up to about 1.1 µM and inactive = higher.

Experiments:
Assay in all cases: inhibition of tumour cell growth, NCI panel, 48 h
CAKI-1 = test system: CAKI-1
CCRF-CEM = test system: CCRF-CEM
HOP-62 = test system: HOP-62
Hs-578T = test system: Hs-578T
K562 = test system: K562
LOX IMVI = test system: LOX IMVI
MDA-MB-231 = test system: MDA-MB-231
Malme-3M = test system: Malme-3M
NCI/ADR-RES = test system: NCI/ADR-RES
OVCAR-3 = test system: OVCAR-3
OVCAR-5 = test system: OVCAR-5
RPMI-8226 = test system: RPMI-8226
RXF 393 = test system: RXF 393
SF-295 = test system: SF-295
SK-OV-3 = test system: SK-OV-3
SNB-75 = test system: SNB-75
SR = test system: SR
TK-10 = test system: TK-10
UO-31 = test system: UO-31

Measured: GI50

C(=C\c1cc(-c2ccc3ccccc3n2)nc2ccc3ccccc3c12)/c1ccc2ccccc2n1
inactive: CAKI-1 > 100 µM | CCRF-CEM > 100 µM | HOP-62 > 100 µM | Hs-578T 29.4 µM | K562 > 100 µM | LOX IMVI > 100 µM | MDA-MB-231 > 100 µM | Malme-3M > 100 µM | NCI/ADR-RES > 100 µM | OVCAR-3 > 100 µM | OVCAR-5 > 100 µM | RPMI-8226 > 100 µM | RXF 393 > 100 µM | SF-295 > 100 µM | SK-OV-3 > 100 µM | SNB-75 24 µM | SR > 100 µM | TK-10 > 100 µM | UO-31 > 100 µM

CCOP(=O)(Nc1ccccc1P(=O)(OCC)OCC)OCC
inactive: CAKI-1 > 100 µM | HOP-62 > 100 µM | Hs-578T > 100 µM | K562 > 100 µM | MDA-MB-231 > 100 µM | Malme-3M > 100 µM | NCI/ADR-RES > 100 µM | OVCAR-3 > 100 µM | OVCAR-5 > 100 µM | RPMI-8226 > 100 µM | RXF 393 > 100 µM | SF-295 > 100 µM | SK-OV-3 > 100 µM | SNB-75 > 100 µM | TK-10 > 100 µM | UO-31 > 100 µM

CC(=O)Oc1cc2c(=O)oc3c(OC(C)=O)c(OC(C)=O)c(OC(C)=O)c4c(=O)oc(c1OC(C)=O)c2c34
inactive: CAKI-1 > 100 µM | CCRF-CEM 19.2 µM | HOP-62 > 100 µM | K562 53.5 µM | LOX IMVI 15.6 µM | Malme-3M 29.4 µM | OVCAR-3 > 100 µM | OVCAR-5 94.6 µM | RPMI-8226 73.8 µM | RXF 393 6.18 µM | SF-295 20.8 µM | SK-OV-3 36.3 µM | SNB-75 45.9 µM | SR 24.8 µM | TK-10 > 100 µM | UO-31 97.7 µM

CCSC1=N/C(=C\c2ccco2)C(Nc2ccc(C)cc2)=N1
inactive: CCRF-CEM > 100 µM | HOP-62 > 100 µM | Hs-578T > 100 µM | K562 > 100 µM | LOX IMVI > 100 µM | MDA-MB-231 > 100 µM | Malme-3M 52 µM | NCI/ADR-RES > 100 µM | OVCAR-3 > 100 µM | OVCAR-5 > 100 µM | RPMI-8226 > 100 µM | SF-295 > 100 µM | SK-OV-3 > 100 µM | SNB-75 > 100 µM | SR > 100 µM | TK-10 > 100 µM | UO-31 > 100 µM
